We go through 23 compounds from ChEMBL document CHEMBL6153032, “Discovery of a highly potent, N-terminal domain-targeting degrader of AR-FL/AR-V7 for the treatment of prostate cancer” (Eur J Med Chem, 2025).

Structures are written as SMILES.

Assay [1] addresses T1, Protein cereblon/Androgen receptor (Homo sapiens, UniProt P10275+Q96SW2). Briefly: PROTAC activity at full length Androgen receptor/CRBN in human 22Rv1 cells assessed as induction of full length Androgen receptor degradation at 1 uM incubated for 24 hrs by Western blot analysis relative to control. The class given is cell-based.
Assay [2] concerns the target T1, Protein cereblon/Androgen receptor. The assay is described as follows: PROTAC activity at full length Androgen receptor/CRBN in human 22Rv1 cells assessed as induction of full length Androgen receptor degradation at 5 uM incubated for 24 hrs by Western blot analysis relative to control. The format is cell-based.
Assay [3] concerns CWR22R. Briefly: Antiproliferative activity against human 22Rv1 cells incubated for 4 days by CCK-8 assay. The format is functional, cell-based. As to conditions: 22Rv1, 96 h. (In general: Tetrazolium assays rely on reduction of a dye to a coloured formazan, in cell work by metabolically active cells.)
For assay [4], the system named is Protein cereblon/Androgen receptor (Homo sapiens), P10275+Q96SW2 [UNDEFINED MUTATION]. The assay is described as follows: PROTAC activity at AR-V7/CRBN in human 22Rv1 cells assessed as induction of AR-V7 degradation at 5 uM incubated for 24 hrs by Western blot analysis relative to control. The note with it: CWR22R. The format is cell-based. In general terms: Immunoblotting shows a protein as a band on a membrane.

Assay [5] shares this test system. The assay is described as follows: PROTAC activity at AR-V7/CRBN in human 22Rv1 cells assessed as induction of AR-V7 degradation at 1 uM incubated for 24 hrs by Western blot analysis relative to control. As to conditions: CWR22R. The format is cell-based.
For assay [6], the system named is CWR22R. Briefly: Induction of apoptosis in human 22Rv1 cells assessed as early apoptotic cells at 100 nM incubated for 48 hrs by Annexin V/FITC staining based flow cytometry analysis (reference value: 2.08 %). The format is functional. (In flow cytometry, cells or beads pass a laser one at a time.)
Assay [7] concerns CWR22R. Briefly: Inhibition of colony formation in human 22Rv1 cells assessed as reduction in colony formation incubated for 14 days. The format is functional, cell-based. As to conditions: dose 1-100 nM, time 14.0 day.
In assay [8] the test system is CWR22R. The assay is described as follows: Induction of apoptosis in human 22Rv1 cells assessed as necrotic cells at 100 nM incubated for 48 hrs by Annexin V/FITC staining based flow cytometry analysis (reference value: 2.31 %). The class given is functional.
In assay [9] the test system is CWR22R. The assay is described as follows: Induction of cell cycle arrest in human 22Rv1 cells assessed as accumulation of cells at G0/G1 phase at 100 nM incubated for 24 hrs by PI staining based flow cytometry analysis (reference value: 62.66%). The format is functional.
Assay [10] has as its system CWR22R. Briefly: Induction of cell cycle arrest in human 22Rv1 cells assessed as accumulation of cells at S phase at 100 nM incubated for 24 hrs by PI staining based flow cytometry analysis (reference value: 28.73%). The class given is functional.
Assay [11] concerns CWR22R. The assay is described as follows: Induction of cell cycle arrest in human 22Rv1 cells assessed as accumulation of cells at G2/M phase at 100 nM incubated for 24 hrs by PI staining based flow cytometry analysis (reference value: 8.61%). The format is functional.
Assay [12] concerns CWR22R. Briefly: Induction of apoptosis in human 22Rv1 cells assessed as viable cells at 100 nM incubated for 48 hrs by Annexin V/FITC staining based flow cytometry analysis (reference value: 94.49%). The note with it: read-out: Activity. The format is functional.
In assay [13] the test system is CWR22R. Briefly: Induction of apoptosis in human 22Rv1 cells assessed as late apoptotic cells at 100 nM incubated for 48 hrs by Annexin V/FITC staining based flow cytometry analysis (reference value: 1.12 %). The class given is functional.

T1 sequence (P10275 whole entry, looked up): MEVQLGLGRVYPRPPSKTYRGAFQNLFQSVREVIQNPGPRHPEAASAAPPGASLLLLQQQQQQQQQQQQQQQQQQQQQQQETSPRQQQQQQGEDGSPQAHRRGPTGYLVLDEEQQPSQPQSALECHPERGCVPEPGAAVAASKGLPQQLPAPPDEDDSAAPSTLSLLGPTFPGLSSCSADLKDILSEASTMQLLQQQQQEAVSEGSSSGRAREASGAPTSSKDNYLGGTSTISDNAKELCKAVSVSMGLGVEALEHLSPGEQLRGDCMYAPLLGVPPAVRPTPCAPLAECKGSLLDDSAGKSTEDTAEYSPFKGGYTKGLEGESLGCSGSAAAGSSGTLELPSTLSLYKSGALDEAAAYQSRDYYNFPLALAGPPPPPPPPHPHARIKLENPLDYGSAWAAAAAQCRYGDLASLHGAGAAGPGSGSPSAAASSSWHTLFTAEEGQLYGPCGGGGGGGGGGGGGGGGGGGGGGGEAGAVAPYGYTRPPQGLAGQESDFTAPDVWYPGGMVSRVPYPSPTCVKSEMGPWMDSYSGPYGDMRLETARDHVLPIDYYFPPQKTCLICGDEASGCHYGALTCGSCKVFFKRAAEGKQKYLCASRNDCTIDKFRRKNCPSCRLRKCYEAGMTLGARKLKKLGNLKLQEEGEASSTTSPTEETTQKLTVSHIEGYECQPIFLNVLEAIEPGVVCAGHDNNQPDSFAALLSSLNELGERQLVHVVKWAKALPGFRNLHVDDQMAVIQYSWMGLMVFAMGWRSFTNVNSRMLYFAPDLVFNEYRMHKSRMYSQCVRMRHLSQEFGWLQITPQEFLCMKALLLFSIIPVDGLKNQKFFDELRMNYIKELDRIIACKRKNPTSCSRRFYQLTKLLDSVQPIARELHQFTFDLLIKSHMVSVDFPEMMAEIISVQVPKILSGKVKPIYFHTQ
T1 sequence (Q96SW2 whole entry, looked up): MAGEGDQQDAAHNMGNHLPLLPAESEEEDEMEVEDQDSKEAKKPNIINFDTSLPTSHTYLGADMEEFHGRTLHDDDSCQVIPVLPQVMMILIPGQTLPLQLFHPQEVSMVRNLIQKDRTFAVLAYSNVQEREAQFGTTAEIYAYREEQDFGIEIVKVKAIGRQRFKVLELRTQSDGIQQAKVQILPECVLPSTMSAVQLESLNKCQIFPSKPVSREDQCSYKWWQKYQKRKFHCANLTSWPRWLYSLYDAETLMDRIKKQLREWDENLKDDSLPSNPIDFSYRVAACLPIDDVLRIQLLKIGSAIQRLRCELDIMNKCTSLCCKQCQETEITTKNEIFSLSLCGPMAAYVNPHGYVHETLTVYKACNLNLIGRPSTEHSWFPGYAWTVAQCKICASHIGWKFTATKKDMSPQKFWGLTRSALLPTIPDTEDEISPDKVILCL
Sequence of Protein cereblon/Androgen receptor (Homo sapiens), P10275+Q96SW2 [UNDEFINED MUTATION] (P10275 whole entry, looked up, change not shown): as the sequence (P10275 whole entry, looked up) above
Sequence of Protein cereblon/Androgen receptor (Homo sapiens), P10275+Q96SW2 [UNDEFINED MUTATION] (Q96SW2 whole entry, looked up, change not shown): as the sequence (Q96SW2 whole entry, looked up) above

Consider `CC(C)(c1ccc(OCC(=O)NCCCNc2cccc3c2C(=O)N(C2CCC(=O)NC2=O)C3=O)cc1)c1ccc(OCC(O)CCl)cc1` (stereo not drawn), for which the Activity came out at 88.1% in assay [1], 91.1% in [2], 93.6% in assay [4] and 80.1% in assay [5]. Further, in the assay on CWR22R [3], the IC50 (commonly the midpoint of a concentration-inhibition curve) was 1.11 µM.

`CC(C)(c1ccc(OCc2cccc(N3CCOCC3)n2)cc1)c1ccc(OCC2CCN(c3cccc4c3C(=O)N(C3CCC(=O)NC3=O)C4=O)CC2)cc1` (stereo not drawn): the Activity in assay [1], in assay [2], in assay [4] and in assay [5] was under 10% in each case. Further, the IC50 in the assay on CWR22R [3] is over 20 µM.

Consider `CC(C)(c1ccc(OC[C@H](O)CO)cc1)c1ccc(OC[C@H](O)CCl)cc1`, for which the Activity in assay [1] is under 10%; in the assay on CWR22R [6], 13.9%; in assay [2], under 10%; in the assay with CWR22R [8] it was 0.78%; in [4], under 10%; in the assay on CWR22R [9], 50.06%. For the same compound, the Activity is 38.87% in the assay with CWR22R [10], under 10% in assay [5], 11.07% in the assay on CWR22R [11] and 4.6% in the assay with CWR22R [13]. Besides, in the assay with CWR22R [7], the inhibition entry was “Weak_effect”. The compound further had an IC50 in the assay with CWR22R [3] of over 20 µM. In addition, in the assay on CWR22R [12], the viability at 0.1 µM turned out to be 80.7%.

As for `CC(C)(c1ccc(OCCCCNc2ccc3c(c2)C(=O)N(C2CCC(=O)NC2=O)C3=O)cc1)c1ccc(OCC(O)CCl)cc1` (stereo not drawn), the Activity is 88.1% in [1], 81.1% in assay [2], 23.6% in assay [4] and 55.1% in [5]. Besides, the IC50 in the assay on CWR22R [3] was 3.11 µM.

Consider `CC(C)(c1ccc(OCC(=O)NC2CCN(c3ccc4c(c3)C(=O)N(C3CCC(=O)NC3=O)C4=O)CC2)cc1)c1ccc(OCC(O)CCl)cc1` (stereo not drawn), for which the Activity in assay [1] turned out to be 75.2%; in assay [2] it was 45.2%; in assay [4], 71.4%; in assay [5] it was 68.8%. For the same compound, in the assay with CWR22R [3], the IC50 worked out at 3.61 µM.

With `CC(C)(c1ccc(OCC(=O)NCCCCCNc2ccc3c(c2)C(=O)N(C2CCC(=O)NC2=O)C3=O)cc1)c1ccc(OCC(O)CCl)cc1` (stereo not drawn), the Activity in [1], in [2], in assay [4] and in [5] was under 10% in each case. In the assay with CWR22R [3], this compound registered a half-maximal inhibitory concentration (IC50) of over 20 µM.

`CC(C)(c1ccc(OCC(=O)N2CCC(N3CCN(c4ccc5c(c4)C(=O)N(C4CCC(=O)NC4=O)C5=O)CC3)CC2)cc1)c1ccc(OCC(O)CCl)cc1` (stereo not drawn): the Activity was under 10% in assay [1], under 10% in [2], under 10% in assay [4] and 33.2% in [5]. The same compound displayed an IC50 in the assay on CWR22R [3] of over 20 µM.

As to `CC(C)(c1ccc(OCC(=O)NCCOCCOCCOCCNc2cccc3c2C(=O)N(C2CCC(=O)NC2=O)C3=O)cc1)c1ccc(OCc2cccc(N3CCOCC3)n2)cc1` (stereo not drawn), the Activity in [1] is 42.5%; in assay [2], 83.5%; in assay [4], 40%; in assay [5], under 10%. In the assay with CWR22R [3], this compound registered an IC50 of 11.2 µM.

Consider `CC(C)(c1ccc(OCC(=O)NC2CN(c3ccc4c(c3)C(=O)N(C3CCC(=O)NC3=O)C4=O)C2)cc1)c1ccc(OCC(O)CCl)cc1` (stereo not drawn), for which the Activity in assay [1] was under 10%; in assay [2] it was 22.3%; in assay [4], 69.8%; in [5], 62.1%. For the same compound, the IC50 in the assay with CWR22R [3] is over 20 µM.

For `CC(C)(c1ccc(OCC(=O)NCCCNc2cccc3c2C(=O)N(C2CCC(=O)NC2=O)C3=O)cc1)c1ccc(OCc2cccc(N3CCOCC3)n2)cc1` (stereo not drawn), the Activity is 22.1% in assay [1], 78.6% in assay [2], 55.5% in assay [4] and under 10% in assay [5]. Further, 7.44 µM corresponded to half-maximal inhibition in the assay with CWR22R [3] (IC50).

`CC(C)(c1ccc(OCCCCCCNc2ccc3c(c2)C(=O)N(C2CCC(=O)NC2=O)C3=O)cc1)c1ccc(OCC(O)CCl)cc1` (stereo not drawn): the Activity in [1] is 90%; in assay [2], under 10%; in assay [4] it was 21.2%; in assay [5], 74.7%. Besides, the IC50 with CWR22R [3] amounted to 2.17 µM.

In the case of `CC(C)(c1ccc(OCC(=O)NC2CN(c3cccc4c3C(=O)N(C3CCC(=O)NC3=O)C4=O)C2)cc1)c1ccc(OCC(O)CCl)cc1` (stereo not drawn), the Activity in assay [1] was 80.1%; in assay [2], 89%; in assay [4] it was 88.2%; in assay [5], 67.7%. Moreover, in the assay on CWR22R [3], the IC50 is 1.17 µM.

Regarding `CC(C)(c1ccc(OCC(=O)N2CCC(CNc3ccc4c(c3)C(=O)N(C3CCC(=O)NC3=O)C4=O)CC2)cc1)c1ccc(OCC(O)CCl)cc1` (stereo not drawn), the Activity was under 10% in [1], 69.6% in assay [2], 79.9% in assay [4] and under 10% in assay [5]. This compound also showed an IC50 in the assay on CWR22R [3] of 15 µM.

Take `CC(C)(c1ccc(OCCCCNc2cccc3c2C(=O)N(C2CCC(=O)NC2=O)C3=O)cc1)c1ccc(OCC(O)CCl)cc1` (stereo not drawn): the Activity in assay [1] is under 10%; in [2] it was 31.3%; in assay [4] it was 89.3%; in assay [5] it was 78.1%. This compound displayed a concentration for half-maximal inhibition (IC50) in the assay with CWR22R [3] of 9.05 µM.

As for `CC(C)(c1ccc(OCCNc2cccc3c2C(=O)N(C2CCC(=O)NC2=O)C3=O)cc1)c1ccc(OCC(O)CCl)cc1` (stereo not drawn), the Activity was 82.5% in [1], under 10% in assay [2], 87% in assay [4] and 87.2% in [5]. This compound registered an IC50 in the assay with CWR22R [3] of 7.77 µM.

On to `CC(C)(c1ccc(OCC(=O)NCCNc2ccc3c(c2)C(=O)N(C2CCC(=O)NC2=O)C3=O)cc1)c1ccc(OCC(O)CCl)cc1` (stereo not drawn), for which the Activity in [1], in [2], in assay [4] and in assay [5] was under 10% each time. In addition, in the assay with CWR22R [3], the IC50 was over 20 µM.

On to `CC(C)(c1ccc(OCC(=O)NCCCCNc2ccc3c(c2)C(=O)N(C2CCC(=O)NC2=O)C3=O)cc1)c1ccc(OCC(O)CCl)cc1` (stereo not drawn), for which the Activity in assay [1], in assay [2], in [4] and in [5] was under 10% in each case. In addition, in the assay on CWR22R [3], the IC50 was over 20 µM.

`CC(C)(c1ccc(OCC(=O)NC2CCN(c3cccc4c3C(=O)N(C3CCC(=O)NC3=O)C4=O)CC2)cc1)c1ccc(OCc2cccc(N3CCOCC3)n2)cc1` (stereo not drawn): the Activity in assay [1] was under 10%; in assay [2], 28.3%; in assay [4] it was 48.7%; in assay [5], under 10%. The compound further had an IC50 with CWR22R [3] of over 20 µM.

For the compound `CC(C)(c1ccc(OCC(=O)NCCCCCCNc2ccc3c(c2)C(=O)N(C2CCC(=O)NC2=O)C3=O)cc1)c1ccc(OCC(O)CCl)cc1` (stereo not drawn), the Activity in assay [1] was 84.1%; in assay [2], 72.1%; in assay [4], under 10%; in assay [5], 32.2%. This compound showed an IC50 with CWR22R [3] of 11.4 µM.

In the case of `CC(C)(c1ccc(OCCCCCCNc2cccc3c2C(=O)N(C2CCC(=O)NC2=O)C3=O)cc1)c1ccc(OCC(O)CCl)cc1` (stereo not drawn), the Activity in assay [1] is 16.7%; in assay [2], under 10%; in [4], 93%; in [5], 79.5%. In addition, half-maximal inhibition in the assay on CWR22R [3] (IC50) required 6.45 µM.

Consider `CC(C)(c1ccc(OCC(=O)NCCN2CCN(c3cccc4c3C(=O)N(C3CCC(=O)NC3=O)C4=O)CC2)cc1)c1ccc(OCc2cccc(N3CCOCC3)n2)cc1` (stereo not drawn), for which the Activity in assay [1], in assay [2], in assay [4] and in [5] was under 10% in each case. The compound also came in with an IC50 with CWR22R [3] of over 20 µM.

As for `CC(C)(c1ccc(OCCCNc2cccc3c2C(=O)N(C2CCC(=O)NC2=O)C3=O)cc1)c1ccc(OCC(O)CCl)cc1` (stereo not drawn), the Activity in assay [1] is 52.1%; in assay [2], 58.3%; in [4], 83.1%; in assay [5], 58.7%. Besides, it took 9.77 µM to reach half-maximal inhibition in the assay with CWR22R [3] (IC50).

Regarding `CC(C)(c1ccc(OCC(=O)NCCCNc2ccc3c(c2)C(=O)N(C2CCC(=O)NC2=O)C3=O)cc1)c1ccc(OCC(O)CCl)cc1` (stereo not drawn), the Activity in [1], in [2], in assay [4] and in [5] was under 10% each time. In the assay with CWR22R [3], this compound yielded an IC50 of over 20 µM.
